IC50, Activity and inhibition data for 8 compounds are collected here from ChEMBL document CHEMBL1139857, “Target-based approach to inhibitors of histone arginine methyltransferases” (J Med Chem, 2007).

Experiment [1] deals with RmtA (Emericella nidulans, UniProt Q5VLE3). As to the kind of experiment: Inhibition of Aspergillus nidulans RmtA by TRF assay.
Experiment [2] has as its target T1, Estrogen receptor (Homo sapiens) (UniProt P03372).
T1 sequence (whole entry): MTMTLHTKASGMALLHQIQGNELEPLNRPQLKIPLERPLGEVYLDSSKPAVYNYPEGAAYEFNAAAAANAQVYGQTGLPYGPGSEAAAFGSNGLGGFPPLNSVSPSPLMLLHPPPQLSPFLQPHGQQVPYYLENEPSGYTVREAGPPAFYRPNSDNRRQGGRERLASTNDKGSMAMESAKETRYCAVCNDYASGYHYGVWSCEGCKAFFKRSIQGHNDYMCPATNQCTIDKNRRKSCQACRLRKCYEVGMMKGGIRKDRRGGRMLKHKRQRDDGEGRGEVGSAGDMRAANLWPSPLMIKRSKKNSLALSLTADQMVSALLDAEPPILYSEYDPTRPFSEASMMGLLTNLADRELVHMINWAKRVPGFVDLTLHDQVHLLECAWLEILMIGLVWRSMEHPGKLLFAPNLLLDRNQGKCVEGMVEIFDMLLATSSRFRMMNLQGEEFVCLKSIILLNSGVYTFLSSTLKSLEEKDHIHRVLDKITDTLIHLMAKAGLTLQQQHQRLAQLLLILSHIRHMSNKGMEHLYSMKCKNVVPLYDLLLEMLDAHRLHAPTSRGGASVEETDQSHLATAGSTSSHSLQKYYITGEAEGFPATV
As to the kind of experiment: Inhibition of estradiol-mediated ERalpha activation in MCF-7-2a cells at 150 uM. It counts as cell-based. Details: scale not given: the % may be the effect or the level left.

The target in experiment [3] is RmtA (Emericella nidulans) (UniProt Q5VLE3). As to the kind of experiment: Inhibition of Aspergillus nidulans RmtA at 10 uM by TRF assay.
Chain of RmtA (Emericella nidulans) (Q5VLE3 as listed by the source): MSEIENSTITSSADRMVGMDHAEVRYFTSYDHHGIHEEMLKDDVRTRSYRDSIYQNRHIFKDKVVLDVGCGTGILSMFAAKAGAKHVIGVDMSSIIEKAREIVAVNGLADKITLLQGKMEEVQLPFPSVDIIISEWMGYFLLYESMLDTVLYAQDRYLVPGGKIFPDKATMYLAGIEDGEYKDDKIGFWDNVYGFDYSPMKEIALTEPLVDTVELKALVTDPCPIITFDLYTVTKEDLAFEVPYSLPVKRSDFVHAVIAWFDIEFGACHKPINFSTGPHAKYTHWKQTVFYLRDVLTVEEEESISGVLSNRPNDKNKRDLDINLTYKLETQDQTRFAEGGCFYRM
The target is the same in experiment [4]. Briefly: Inhibition of Aspergillus nidulans RmtA at 2 uM by TRF assay.
The target of experiment [5] is T2, Androgen receptor (Homo sapiens) (UniProt P10275).
T2 sequence (whole entry): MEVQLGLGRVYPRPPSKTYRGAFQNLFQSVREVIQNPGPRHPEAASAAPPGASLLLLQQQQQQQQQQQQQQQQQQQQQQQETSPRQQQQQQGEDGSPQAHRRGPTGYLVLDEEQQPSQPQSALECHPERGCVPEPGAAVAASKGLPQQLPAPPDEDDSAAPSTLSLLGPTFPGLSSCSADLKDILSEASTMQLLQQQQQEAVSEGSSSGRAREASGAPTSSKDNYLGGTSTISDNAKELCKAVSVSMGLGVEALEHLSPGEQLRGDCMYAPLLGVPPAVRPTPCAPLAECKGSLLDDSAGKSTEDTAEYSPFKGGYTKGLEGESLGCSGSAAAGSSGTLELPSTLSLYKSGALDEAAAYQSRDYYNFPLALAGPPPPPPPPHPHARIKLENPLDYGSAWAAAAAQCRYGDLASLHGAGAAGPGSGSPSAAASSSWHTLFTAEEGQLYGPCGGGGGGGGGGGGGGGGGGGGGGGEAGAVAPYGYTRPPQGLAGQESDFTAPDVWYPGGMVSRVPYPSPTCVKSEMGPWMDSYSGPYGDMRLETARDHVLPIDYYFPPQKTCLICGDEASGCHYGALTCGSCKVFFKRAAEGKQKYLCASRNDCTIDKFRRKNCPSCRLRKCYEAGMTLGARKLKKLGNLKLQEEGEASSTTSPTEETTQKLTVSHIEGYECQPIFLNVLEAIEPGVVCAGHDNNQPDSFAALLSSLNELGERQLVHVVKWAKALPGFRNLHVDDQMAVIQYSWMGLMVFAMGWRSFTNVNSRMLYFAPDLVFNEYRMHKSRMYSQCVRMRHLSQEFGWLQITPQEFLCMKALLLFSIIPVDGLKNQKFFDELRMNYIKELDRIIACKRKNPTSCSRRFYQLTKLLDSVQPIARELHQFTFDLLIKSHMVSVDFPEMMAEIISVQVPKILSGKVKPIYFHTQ
As to the kind of experiment: Inhibition of androgen receptor activation in MCF-7-2a cells by reporter gene assay. It is filed as cell-based.

In experiment [6] the target is T1, Estrogen receptor (Homo sapiens). Briefly: Inhibition of ERalpha activation in MCF-7-2a cells by reporter gene assay. It is filed as cell-based. On the technique in general: A reporter such as luciferase makes a cellular process visible.

Molecules are shown by their SMILES. Active and inactive are the calls of the source. The rule behind the calls is not given here.

Chain of RmtA (Q5VLE3 whole entry): as the sequence (Q5VLE3 as listed by the source) above

In general, IC50 refers to the concentration that gives 50% inhibition. In the case of `Nc1ccc(S(=O)(=O)c2ccc(NCN3C(=O)NC(=O)C(=O)C3=O)cc2)cc1` [ALLANTODAPSONE], 8.3 µM corresponded to half-maximal inhibition in experiment [1] (IC50).
In experiment [2], `N=C(N)c1ccc(/C=C/c2ccc(C(=N)N)cc2)cc1` [STILBAMIDINE] registered an Activity of 75%. Besides, in experiment [1], the IC50 was 29.9 µM.
What is called inhibition is the share of the control response that was lost under treatment. As for `N=C(N)Nc1nc2cc([N+](=O)[O-])ccc2[nH]1`, the inhibition in experiment [3] turned out to be 75.1%; in experiment [4] it was 15.6%.
As for `Cc1ccc(CNc2ncnc3[nH]cnc23)cc1`, the inhibition in experiment [3] was 77%; in experiment [4] it was 26.1%.
In the case of `N=C(N)SCc1cc(Cl)cc(Cl)c1O`, the inhibition in experiment [3] was 83.9%; in experiment [4] it was 18.3%.
Take `CC(C)(CN)SCc1ccccc1`: the inhibition in experiment [3] came out at 68.3%. Further, in experiment [4], the result was inactive.
For `c1nc(NCCCc2c[nH]cn2)c2nc[nH]c2n1`, the inhibition is 64.7% in experiment [3] and 34.9% in experiment [4].
`O=C(Nc1ccc2c(O)cc(S(=O)(=O)O)cc2c1)Nc1ccc2c(O)cc(S(=O)(=O)O)cc2c1`: the result in experiment [5], in experiment [2] and in experiment [6] was Active. This compound also had an IC50 in experiment [1] of 33.8 µM.
